{
  "source": "patent US20210393547A1",
  "about": "“USE OF EMODIN IN TREATING RETINAL ISCHEMIA OR A DISEASE, CONDITION, OR DISORDER ASSOCIATED WITH RETINAL ISCHEMIA” (priority 2020, published 2021)",
  "test_system": "retinal ganglion cells (RGC) in ischemic retina of Wistar rats",
  "experiment": "Retrograde fluorogold labeling of RGCs after retinal ischemia/reperfusion",
  "format": "in vivo, rat",
  "details": "n=4, mean±SE",
  "method": "Emodin was purchased from Sigma-Aldrich (E7881; 90%; storage at 2-8° C.; from Frangula bark; St. Louis, Mo., United States). Drug administration for different procedures, namely ERG, fluorogold RGC labelling, cresyl violet retinal staining and Western blot assays, were described in Tables 3 to 6. Vehicle or emodin (5 μL) was administered via an intravitreous injection route so that these agents were then able to be directly diffused to the target. Emodin was dissolved in vehicle (DMSO:distilled water=1:3). The defined final cellular concentrations of administered drug were 0.25 or 0.5 μM, which were achieved after 40 times dilution from the stock concentrations, namely 10 or 20 μM, based on an arbitrary definition of the vitreous volume as 200 μL. To test a wider range of dose-response, 4 μM of emodin was thus added in the animal experiments. The Vehicle+IR and Emo+IR groups (pre-ischemic administration of emodin 4, 10 or 20 μM) were subjected to following the experimental procedures; these were initial pre-ischemic intravitreous injection (vehicle or emodin), retinal ischemia induction 1 day later, and sacrifice of the animal on the following day to allow the various post-mortem procedures except ERG. […] Finally, the samples were then analyzed by fluorescent microscopy. The RGC density was defined as the total RGC amount divided by the whole retinal area and its mean was then calculated.",
  "data": [
    {"molecule": "Cc1cc(O)c2c(c1)C(=O)c1cc(O)cc(O)c1C2=O", "note": "[emodin, 6-methyl-1,3,8-trihydroxyanthraquinone]", "values": [
      {"measurement": "RGC density (retrograde fluorogold labeled)", "setting": "Emo10+IR: pre-ischemic intravitreous 10 μM emodin, P<0.01, Sham 5323.53, Vehicle+IR 2069.12", "value": "3345.59±206.80 /0.17 mm^2"},
      {"measurement": "RGC density (retrograde fluorogold labeled)", "setting": "Emo20+IR: pre-ischemic intravitreous 20 μM emodin, P<0.001", "value": "4623.53±179.48 /0.17 mm^2"}
    ]}
  ]
}
